Experimental data: patent publication US20100144708A1, “HETEROCYCLIC COMPOUNDS CONTAINING NITROGEN ATOMS OR PHARMACEUTICALLY ACCEPTABLE SALTS THEREOF, PROCESS FOR THE PREPARATION THEREOF AND PHARMACEUTICAL COMPOSITION COMPRISING THE SAME FOR TREATMENT OF CANCER” (Korea Research Instititute of Bioscience and Biotechnology, priority 2006, published 2010)

Columns and labels:
Assay type in all cases: cell-based, Human
NUGC-3 (gastric cancer) = assay: Test for inhibition of tumor cell growth (SRB), NUGC-3; settings: 48 hours, SRB staining; for GI50: Homo sapiens, NUGC-3
Experimental: (§1) Human tumor cell lines, PC-3 (prostate cancer, ATCC, USA), MBA-MB-231 (breast cancer, ATCC, USA), ACHN (kidney cancer, ATCC, USA), and NUGC-3 (gastric cancer, ATCC, USA) were cultured in RPMI 1640 media containing 10% fetal bovine serum (FBS).
(§2) In order to measure anticancer activity, a suitable concentration of cells in RPMI 1640 media containing 5% fetal bovine serum (about 5×10^4 cells/□) was aliquotted in 96-well plates, and cultured in 5% CO2 at 37° C. On day one after aliquoting the cells, before the cells were treated with the compounds, in order to determine their concentration, 50[…] of 50% trichloroacetic acid was added to each well of time zero (T0) plate, and cells were fixed to determine zero point. The cells treated with the compounds were fixed on each well having 50[…] of 50% trichloroacetic acid after 48 hours. The final concentrations of the test compounds were 0.01, 0.03, 0.1, 0.3, and 1[…]/□. The fixed plate was washed with water and dried, and then 100[…] of 0.4% sulphorhodamine B (SRB) dissolved in 0.1% acetic acid was added to the each well to stain the cells. The plate was allowed to stand for 30 minutes, and then washed with 0.1% acetic acid. Then, the plate was dried at room temperature, and treated with 10 mM tris base (pH 10.5) to dissolve staining reagent. An absorbance measured at 540 nm was calculated as a percentage of the control group, and then the concentration of the compound that inhibited tumor cell growth (GI50(□/□)) by 50% was determined.

[1] = system: MBA-MB-231 (breast cancer); assay: Test for inhibition of tumor cell growth (SRB), MBA-MB-231; settings: 48 hours, SRB staining; for GI50: Homo sapiens
Experimental: as §1, §2

ACHN (kidney cancer) = assay: Test for inhibition of tumor cell growth (SRB), ACHN; settings: 48 hours, SRB staining; for GI50: Homo sapiens, ACHN
Experimental: as §1, §2

PC-3 (prostate cancer) = assay: Test for inhibition of tumor cell growth (SRB), PC-3; settings: 48 hours, SRB staining; for GI50: Homo sapiens, read-out: GI50 PC-3 (prostate ancer)
Experimental: as §1, §2

| SMILES | GI50 (NUGC-3 (gastric cancer)) [µg/mL] | GI50 [1] [µg/mL] | GI50 (ACHN (kidney cancer)) [µg/mL] | GI50 (PC-3 (prostate cancer)) [µg/mL] | GI50 NUGC-3 (gastric cancer) (NUGC-3 (gastric cancer)) [µg/mL] | GI50 MBA-MB-231 (breast cancer) [1] [µg/mL] | GI50 ACHN (kidney cancer) (ACHN (kidney cancer)) [µg/mL] | GI50 PC-3 (prostate ancer) (PC-3 (prostate cancer)) [µg/mL] |
| --- | --- | --- | --- | --- | --- | --- | --- | --- |
| CCCCCCCCCCCCCCCC(=O)N1CC[N+](CC)(Cc2cccc([N+](=O)[O-])c2)CC1 [Example 47, 1-ethyl-1-(3-nitrobenzyl)-4-palmitoylpiperazin-1-ium bromide] | 3.64 | > 10 | 5.13 | 4.57 |  |  |  |  |
| CCCCCCCCCCCCCCCCCC(=O)N1CC[N+](CC)(Cc2ccc(F)cc2)CC1 [Example 48, 1-ethyl-1-(4-fluorobenzyl)-4-stearoylpiperazin-1-ium bromide] | 1.19 | 1.49 | 1.43 | 0.68 |  |  |  |  |
| CCCCCCCCCCCCCCCCCC(=O)N1CC[N+](CC)(Cc2cccc([N+](=O)[O-])c2)CC1 [Example 49, 1-ethyl-1-(3-nitrobenzyl)-4-stearoylpiperazin-1-ium bromide] | 3.63 | 5.38 | 3.08 | 3.14 |  |  |  |  |
| CCCCCCCCCCCCCCCCCC(=O)N1CC[N+](CC)(Cc2ccc(Br)cc2)CC1 [Example 50, 1-(4-bromobenzyl)-1-ethyl-4-stearoylpiperazin-1-ium bromide] | 2.49 | 2.3 | 1.94 | 0.95 |  |  |  |  |
| CCCCCCCCCCCCCC(=O)N1CC[N+](CC)(Cc2cccc(F)c2)CC1 [Example 51, 1-ethyl-1-(3-fluorobenzyl)-4-tetradecanoylpiperazin-1-ium bromide] | 1.05 | 1.42 | 1.85 | 0.52 |  |  |  |  |
| CCCCCCCCCCCCCC(=O)N1CC[N+](CC)(Cc2cccc(C)c2)CC1 [Example 52, 1-ethyl-1-(3-methylbenzyl)-4-tetradecanoylpiperazin-1-ium bromide] | 0.88 | 1.6 | 2.08 | 0.51 |  |  |  |  |
| CCCCCCCCCCCC(=O)N1CC[N+](CC)(Cc2cccc([N+](=O)[O-])c2)CC1 [Example 53, 4-dodecanoyl-1-ethyl-1-(3-nitrobenzyl)piperazin-1-ium bromide] | 3.52 | 3.95 | 4.84 | 0.57 |  |  |  |  |
| CCCCCCCCCCCC(=O)N1CC[N+](CC)(Cc2cccc(F)c2)CC1.[Br-] [Example 54] |  |  |  |  | 1.61 | 4.71 | 3.78 | 0.53 |
| CCCCCCCCCCCCCCCCCC(=O)N1CC[N+](CC)(Cc2cccc(C)c2)CC1 [Example 58, 1-ethyl-1-(3-methylbenzyl)-4-stearoylpiperazin-1-ium bromide] | 0.46 | 1.52 | 0.93 | 0.63 |  |  |  |  |
| CCCCCCCCCCCCCCCCCCS(=O)(=O)N1CC[N+](C)(CC)CC1 [Example 59, 1-ethyl-1-methyl-4-(octadecane-1-sulfonyl)piperazin-1-ium iodide] | 0.66 | 2.05 | 1.07 | 0.84 |  |  |  |  |
| C=CC[N+]1(CC)CCN(S(=O)(=O)CCCCCCCC)CC1 [Example 60, 1-allyl-1-ethyl-4-(octane-1-sulfonyl)piperazin-1-ium bromide] | > 10 | > 10 | > 10 | > 10 |  |  |  |  |
| C=CC[N+]1(C)CCN(S(=O)(=O)CCCCCCCC)CC1 [Example 61, 1-allyl-1-methyl-4-(octane-1-sulfonyl)piperazin-1-ium bromide] | > 10 | > 10 | > 10 | > 10 |  |  |  |  |
| CCCCCCCCS(=O)(=O)N1CC[N+](C)(Cc2ccccc2)CC1 [Example 62, 1-benzyl-1-methyl-4-(octane-1-sulfonyl)piperazin-1-ium bromide] | > 10 | > 10 | > 10 | > 10 |  |  |  |  |
| CCCCCCCCCCCS(=O)(=O)N1CC[N+](CC)(Cc2ccccc2)CC1 [Example 64, 1-benzyl-1-ethyl-4-(undecane-1-sulfonyl)piperazin-1-ium bromide] | 0.36 | 2.07 | 1.43 | 0.67 |  |  |  |  |
| CCCCCCCCCCCS(=O)(=O)N1CC[N+](C)(Cc2ccccc2)CC1 [Example 65, 1-benzyl-1-methyl-4-(undecane-1-sulfonyl)piperazin-1-ium bromide] | 0.37 | 0.82 | 1.16 | 0.42 |  |  |  |  |
| CCCCCCCCCCCS(=O)(=O)N1CC[N+](C)(Cc2ccc(F)cc2)CC1 [Example 66, 1-(4-fluorobenzyl)-1-methyl-4-(undecane-1-sulfonyl)piperazin-1-ium bromide] | 1.06 | 1.47 | 1.24 | 0.56 |  |  |  |  |
| C=CC[N+]1(CC)CCN(S(=O)(=O)CCCCCCCCCCCCCC)CC1 [Example 67, 1-allyl-1-ethyl-4-(tetradecane-1-sulfonyl)piperazin-1-ium bromide] | 0.6 | 1.05 | 0.51 | 0.87 |  |  |  |  |
| CCCCCCCCCCCCCCS(=O)(=O)N1CC[N+](CC)(Cc2ccc(F)cc2)CC1 [Example 68, 1-ethyl-1-(4-fluorobenzyl)-4-(tetradecane-1-sulfonyl)piperazin-1-ium bromide] | 1.05 | 1.59 | 1.19 | 0.71 |  |  |  |  |
| CCCCCCCCCCCCCCS(=O)(=O)N1CC[N+](C)(Cc2ccccc2)CC1 [Example 70, 1-benzyl-1-methyl-4-(tetradecane-1-sulfonyl)piperazin-1-ium bromide] | 0.53 | 0.87 | 1.11 | 0.49 |  |  |  |  |

Continued, in another order:

| GI50 (NUGC-3 (gastric cancer)) [µg/mL] | GI50 [1] [µg/mL] | GI50 (ACHN (kidney cancer)) [µg/mL] | GI50 (PC-3 (prostate cancer)) [µg/mL] | SMILES | GI50 NUGC-3 (gastric cancer) (NUGC-3 (gastric cancer)) [µg/mL] | GI50 MBA-MB-231 (breast cancer) [1] [µg/mL] | GI50 ACHN (kidney cancer) (ACHN (kidney cancer)) [µg/mL] | GI50 PC-3 (prostate ancer) (PC-3 (prostate cancer)) [µg/mL] |
| --- | --- | --- | --- | --- | --- | --- | --- | --- |
| 0.82 | 1.14 | 1.42 | 0.65 | CCCCCCCCCCCCCCS(=O)(=O)N1CC[N+](C)(Cc2ccc(F)cc2)CC1 [Example 71, 1-(4-fluorobenzyl)-1-methyl-4-(tetradecane-1-sulfonyl)piperazin-1-ium bromide] |  |  |  |  |
| 0.57 | 1.37 | 0.71 | 0.73 | C=CC[N+]1(CC)CCN(S(=O)(=O)CCCCCCCCCCCCCCCCCC)CC1 [Example 72, 1-allyl-1-ethyl-4-(octadecane-1-sulfonyl)piperazin-1-ium bromide] |  |  |  |  |
| 0.85 | 1.75 | 1.87 | 0.8 | CCCCCCCCCCCCCCCCCCS(=O)(=O)N1CC[N+](CC)(Cc2ccccc2)CC1 [Example 73, 1-benzyl-1-ethyl-4-(octadecane-1-sulfonyl)piperazin-1-ium bromide] |  |  |  |  |
| 0.85 | 1.72 | 1.25 | 1 | C=CC[N+]1(C)CCN(S(=O)(=O)CCCCCCCCCCCCCCCCCC)CC1 [Example 74, 1-allyl-1-methyl-4-(octadecane-1-sulfonyl)piperazin-1-ium bromide] |  |  |  |  |
| 3.29 | > 10 | 4.45 | 1.84 | CCCCCCCCCCS(=O)(=O)N1CC[N+](C)(C)CC1 [Example 75, 4-(decane-1-sulfonyl)-1,1-dimethyl-piperazin-1-ium iodide] |  |  |  |  |
| 0.99 | 4.02 | 3.5 | 0.54 | CCCCCCCCCCS(=O)(=O)N1CC[N+](C)(Cc2ccccc2)CC1 [Example 76, 1-benzyl-4-(decane-1-sulfonyl)-1-methyl-piperazin-1-ium bromide] |  |  |  |  |
| 1.55 | > 10 | 3.47 | 0.83 | C=CC[N+]1(C)CCN(S(=O)(=O)CCCCCCCCCC)CC1 [Example 77, 1-allyl-4-(decane-1-sulfonyl)-1-methyl-piperazin-1-ium bromide] |  |  |  |  |
| 1.81 | > 10 | 4.15 | 1.06 | CCCCCCCCCCS(=O)(=O)N1CC[N+](C)(CC)CC1 [Example 78, 4-(decane-1-sulfonyl)-1-ethyl-1-methyl-piperazin-1-ium iodide] |  |  |  |  |
| 1.24 | > 10 | 4.41 | 0.85 | CCCCCCCCCCS(=O)(=O)N1CC[N+](CC)(Cc2ccccc2)CC1 [Example 79, 1-benzyl-4-(decane-1-sulfonyl)-1-ethyl-piperazin-1-ium bromide] |  |  |  |  |
| 0.89 | > 10 | 3.07 | 0.85 | C=CC[N+]1(CC)CCN(S(=O)(=O)CCCCCCCCCC)CC1 [Example 80, 1-allyl-4-(decane-1-sulfonyl)-1-ethyl-piperazin-1-ium bromide] |  |  |  |  |
| 0.58 | 1.49 | 1.48 | 0.61 | CCCCCCCCCCCCS(=O)(=O)N1CC[N+](C)(Cc2ccccc2)CC1 [Example 81, 1-benzyl-4-(dodecane-1-sulfonyl)-1-methyl-piperazin-1-ium bromide] |  |  |  |  |
| 0.75 | 1.4 | 0.86 | 0.71 | C=CC[N+]1(C)CCN(S(=O)(=O)CCCCCCCCCCCC)CC1 [Example 82, 1-allyl-4-(dodecane-1-sulfonyl)-1-methyl-piperazin-1-ium bromide] |  |  |  |  |
